The values below come from PubChem BioAssay AID1645863 (Buhrlage Lab, Dana-Farber Cancer Institute and Novartis …, 2021).

The term IC50 denotes the midpoint of a concentration-inhibition curve.

The structures appear in SMILES notation. Activity calls are given as the source filed them. How the calls were made is not given here.

Sequence of Ubiquitin carboxyl-terminal hydrolase 10 (Homo sapiens) (Q14694 whole entry, looked up): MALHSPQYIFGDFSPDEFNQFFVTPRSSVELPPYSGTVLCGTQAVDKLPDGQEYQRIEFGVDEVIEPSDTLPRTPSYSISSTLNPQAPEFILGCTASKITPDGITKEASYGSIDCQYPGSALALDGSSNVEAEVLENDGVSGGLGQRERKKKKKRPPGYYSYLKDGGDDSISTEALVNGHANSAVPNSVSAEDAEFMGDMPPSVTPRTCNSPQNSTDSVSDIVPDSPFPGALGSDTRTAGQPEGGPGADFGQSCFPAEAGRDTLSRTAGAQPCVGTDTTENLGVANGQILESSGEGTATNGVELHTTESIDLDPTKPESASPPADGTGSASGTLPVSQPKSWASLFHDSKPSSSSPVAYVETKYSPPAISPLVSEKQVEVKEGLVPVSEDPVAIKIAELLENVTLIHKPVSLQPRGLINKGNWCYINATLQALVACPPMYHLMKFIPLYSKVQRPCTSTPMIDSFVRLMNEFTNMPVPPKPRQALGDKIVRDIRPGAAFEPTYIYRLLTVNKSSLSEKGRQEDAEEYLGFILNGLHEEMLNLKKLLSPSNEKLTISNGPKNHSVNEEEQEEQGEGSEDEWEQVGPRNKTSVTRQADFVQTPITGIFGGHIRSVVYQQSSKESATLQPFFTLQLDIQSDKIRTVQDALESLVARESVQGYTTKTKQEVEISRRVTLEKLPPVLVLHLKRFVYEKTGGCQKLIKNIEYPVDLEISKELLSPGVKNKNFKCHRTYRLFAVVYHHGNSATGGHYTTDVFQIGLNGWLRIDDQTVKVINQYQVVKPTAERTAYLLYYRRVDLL

The assay concerns the target Ubiquitin carboxyl-terminal hydrolase 10 (Homo sapiens) (UniProt Q14694). The assay is described as follows: primary hit verification, biochemical, ubiquitin-specific protease 10 deubiquitylase inhibitors, concentration-effect titration (AID 1645863).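 Further: potency values describe inhibition of USP10 cleavage of a fluorogenic ubiquitin substrate.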 To be noted: USP10 deubiquitinase enzymatic assay.
Turning to `O=C(c1cnc2ccccc2n1)N1CCC(S(=O)(=O)c2ccc(-c3ccco3)cc2)CC1`, the IC50 is > 40 µM (inactive).

Turning to `N#Cc1ccc(NC(=O)Nc2cccn(Cc3c(F)cccc3Cl)c2=O)cc1`, the IC50 was > 40 µM (inactive).

As to `O=C(CCc1nnc2n(Cc3ccccc3Cl)c(=O)c3ccccc3n12)NCc1ccccc1`, the IC50 is > 40 µM (inactive).

With `O=C(COC(=O)c1ccc(NS(=O)(=O)c2ccc(F)c(F)c2)cc1)Nc1ccc(OCc2ccccc2)cc1`, the IC50 is 20.9 µM.

For `Cc1cccc(NC(=O)CSc2nc3c(cc2C#N)C(=O)CCC3)c1`, the IC50 was 26.4 µM.

Regarding `Cc1occ2c1C(=O)c1c(O)ccc(O)c1C2`, the IC50 was 4.8 µM.

For the compound `Cc1ccc(-n2cc(C(=O)NCCCc3ccccc3)nn2)cc1`, the IC50 was 29.5 µM.

As to `Cn1c(=O)n(CCc2ccccc2)c(=O)c2c1nc1n2CCN1Cc1ccccc1`, the IC50 was > 40 µM (inactive).

Consider `CNc1nc2c(c(=O)n1C)CN(C(=O)Nc1cccc3ccccc13)CC2`, for which the IC50 is > 40 µM (inactive).

Take `Cn1cc(C(=O)NCC2COc3ccccc3O2)c(=O)c2cc(S(=O)(=O)N3CCCCC3)ccc21` (stereo not drawn): the IC50 was > 40 µM (inactive).

As to `O=C(Cn1c(COc2ccccc2)nc2ccccc21)Nc1ccc(N2CCOCC2)cc1`, the IC50 is > 40 µM (inactive).

As for `Cc1cc(C)c(NC(=O)CSc2nc3nccnc3c(=O)n2Cc2ccccc2Cl)c(C)c1`, the IC50 is > 40 µM (inactive).

As for `Cc1cc(N2CCOCC2)nc(N2CCN(C(=O)C(C)Oc3ccccc3)CC2)n1` (stereo not drawn), the IC50 was > 40 µM (inactive).

Regarding `O=C(NC1(O)C(=O)c2ccccc2C1=O)c1cccc2c1-c1ccccc1C2=O`, the IC50 was 10.3 µM.

As for `O=C(NCc1ccc(Cl)cc1)c1cc2c(s1)-c1ccccc1OC2`, the IC50 is > 40 µM (inactive).

`CCN(c1ccc(NC(=O)COC(=O)c2cccnc2Nc2cccc(C(F)(F)F)c2)cc1)C(C)C`: the IC50 is > 40 µM (inactive).

For the compound `COc1ccc(OC)c(NC2=NS(=O)(=O)C(c3cccc(Br)c3)=C2C)c1`, the IC50 was > 40 µM (inactive).

As for `Cc1cc(N2CCN(c3ncccn3)CC2)nc2ccc(NC(=O)Cn3nc([N+](=O)[O-])c(Br)c3C)cc12`, the IC50 is > 40 µM (inactive).

As to `COc1cc(NC(=O)Cn2c(=O)n(-c3ccc(CC(=O)NCc4ccco4)cc3)c(=O)c3ccccc32)cc(OC)c1`, the IC50 was 23.3 µM.

`CS(=O)(=O)c1ccc2nc(N(Cc3cccnc3)C(=O)c3ccc4ccccc4c3)sc2c1`: the IC50 was > 40 µM (inactive).

Turning to `Brc1ccc(Nc2nc(-c3ccccn3)nc3ccccc23)cc1`, the IC50 is 21 µM.

As for `COc1ccc(C)cc1NC(=O)Nc1nnc(CC(=O)NCc2ccccc2)s1`, the IC50 is > 40 µM (inactive).

Turning to `COc1ccc(OC)c(-c2cn3ccn(-c4ccc(F)c(Cl)c4)c(=O)c3n2)c1`, the IC50 was 18.7 µM.

Consider `Cc1sc(NC(=O)c2ccc(S(=O)(=O)N(C)Cc3ccccc3)cc2)c(C(N)=O)c1C`, for which the IC50 was > 40 µM (inactive).

`Cc1ccc2c(c1)N(C)C(=O)c1cc(NC(=O)c3ccc(F)cc3)ccc1O2`: the IC50 was 12.8 µM.

Take `Cc1ccc2cc(CNc3ccccc3)c(=O)n(CC(=O)Nc3ccccc3C)c2c1`: the IC50 was > 40 µM (inactive).

With `O=C(Cn1c(=O)[nH]c2c(-c3ccc(F)cc3)c[nH]c2c1=O)NCc1ccc(F)cc1`, the IC50 is > 40 µM (inactive).

As for `Cc1cc(NC(=O)Cn2c(=O)n(Cc3ccco3)c(=O)c3ccc(C(=O)NCCc4ccccc4)cc32)n[nH]1`, the half-maximal inhibitory concentration (IC50) was 23 µM.

With `COC(=O)c1ccccc1NC(=O)CSc1nnc(CNc2ccc(F)cc2)n1CC1CCCO1` (stereo not drawn), the IC50 is > 40 µM (inactive).

On to `COc1ccc(NC(=O)Cn2cc(C(=O)c3ccc(F)cc3)c(=O)c3cc(C)ccc32)cc1OC`, for which the IC50 was > 40 µM (inactive).

Consider `N#Cc1cc(C(=O)c2cc(Cl)ccc2O)cn(-c2ccccn2)c1=O`, for which the IC50 is > 40 µM (inactive).

Turning to `N#C/C(=C\c1ccccc1F)c1nnc(N)s1`, the IC50 was > 40 µM (inactive).

For `Cn1c(=O)n([C@@H](Cc2ccccc2)C(=O)N[C@@H](C(=O)O)c2ccc(O)cc2)c(=O)c2ccccc21`, the IC50 was > 40 µM (inactive).

Take `Cc1cc(=O)n(CC(=O)Nc2ccc3c(c2)OCO3)c2c1c(-c1ccccc1)nn2-c1ccccc1`: the IC50 was > 40 µM (inactive).

As for `CCCCN1Cc2sc(NC(=O)Nc3ccccc3C)nc2C1=O`, the IC50 was 15.6 µM.

For the compound `COc1cc(OC)c(NC(=O)Cn2c(=O)n(Cc3ccccc3Cl)c(=O)c3cc(OC)c(OC)cc32)cc1Cl`, the IC50 was > 40 µM (inactive).

Regarding `Cc1ccc(Nc2nc(O)c(CC(=O)Nc3ccccc3C)s2)cc1C`, the IC50 was > 40 µM (inactive).

For `CCC(=O)Nc1nc2cc(NC(=O)Nc3ccc(C)cc3)ccc2s1`, the IC50 is > 40 µM (inactive).

As to `COc1cccc2c1NC(=O)C21CCN(C(=O)Nc2cccc3ccccc23)CC1`, the IC50 is > 40 µM (inactive).

`CCc1ccc(NC(=O)Cn2c(=O)n(Cc3ccccc3)c(=O)c3nn(CC)cc32)cc1`: the IC50 is > 40 µM (inactive).

With `CC(c1ccccc1)N1CC(O)=C(c2nc3ccccc3s2)C1=N` (stereo not drawn), the IC50 was > 40 µM (inactive).

With `Cc1noc(-c2cc(=O)n(CC(=O)Nc3ccccc3Cl)c3ccccc23)n1`, the IC50 was 14.4 µM.

With `Cc1cc(OCC(=O)Nc2ccccc2C(=O)Nc2ccccc2)ccc1Cl`, the IC50 is 24.6 µM.

As to `COCCCN1CCS(=O)(=O)c2c(Cl)c(F)nc(Oc3ccccc3F)c21`, the IC50 is > 40 µM (inactive).

As to `COc1c(O)cc(CC(=O)O)c(C(C)=O)c1O`, the IC50 is 15.3 µM.

Take `CC(C)Cc1ccc(-c2cc(-c3ccc(C(F)(F)F)cc3)c(C#N)c(=O)[nH]2)cc1`: the half-maximal inhibitory concentration (IC50) was 9.8 µM.

For `CCNS(=O)(=O)c1ccc(-c2ccc(-n3cnnn3)cc2)cc1`, the IC50 is > 40 µM (inactive).

In the case of `O=C(CC1C(=O)Nc2nc(-c3ccccc3)nn21)Nc1cccc2ccccc12` (stereo not drawn), the IC50 is 13.3 µM.

For the compound `O=C(c1cccnc1)N1CCN(c2cc(-c3ccccc3)[nH]n2)CC1`, the IC50 is > 40 µM (inactive).

Consider `COc1ccc(-c2noc(CC(=O)Nc3cccc(OC)c3)n2)cc1`, for which the IC50 was > 40 µM (inactive).

With `CC(C)NC(=O)Cn1ccn2nc(-c3ccc(Cl)cc3)cc2c1=O`, the IC50 is > 40 µM (inactive).

`CC(C)CC1NC(=O)C2CCCN2C1=O` (stereo not drawn): the IC50 was > 40 µM (inactive).

Turning to `COc1ccc(CNC(=O)Cn2c(=O)[nH]c3c(-c4ccccc4F)c[nH]c3c2=O)cc1`, the IC50 is > 40 µM (inactive).

For `CCc1ccc(NC(=O)CSc2nc3nccnc3c(=O)n2Cc2ccc(F)cc2)cc1`, the IC50 was > 40 µM (inactive).

As to `Cn1cc(NC(=O)Nc2cccc3ccccc23)c2ccccc21`, the IC50 is > 40 µM (inactive).

Consider `Cc1cccc(OCC2=NN3C(=N)/C(=C\c4cc(C)n(-c5cccc(F)c5)c4C)C(=O)N=C3S2)c1`, for which the IC50 is > 40 µM (inactive).

Turning to `CCN(CC)C(=O)c1sc(NC(=O)c2cc(-c3ccccc3Cl)nc3ccccc23)c(C(N)=O)c1C`, the IC50 is > 40 µM (inactive).

Take `CC(C)c1ccc(NC(=O)COC(=O)c2ccc(NS(=O)(=O)c3ccc4c(c3)OCCO4)cc2)cc1`: the IC50 was 22.3 µM.

Regarding `COc1ccc(CC(=O)Nc2ccccc2-c2nc3ccccc3[nH]2)cc1OC`, the IC50 is 36.7 µM.

For the compound `CCCCCCCCCc1cc(OC(=O)c2c(CCCCCCCCC)cc(O)cc2O[C@@H]2O[C@H](CO)[C@@H](O)[C@H](O)[C@H]2O)cc(O)c1C(=O)O`, the IC50 is 3.43 µM.

Take `O=C(Cn1c(COc2ccccc2)nc2ccccc21)Nc1cc(Cl)ccc1Cl`: the IC50 is > 40 µM (inactive).

On to `COc1ccc2c(c1)CCc1c-2n[nH]c1C(=O)Nc1cc(C)on1`, for which the IC50 was > 40 µM (inactive).

In the case of `CCc1ccc(S(=O)(=O)c2cn(CC(=O)Nc3ccccc3)c3ccccc3c2=O)cc1`, the IC50 is > 40 µM (inactive).

Take `Fc1ccccc1-c1nc2c3cnn(-c4ccccc4)c3ncn2n1`: the IC50 was > 40 µM (inactive).

For the compound `COc1ccc(C(=O)COC(=O)c2ccccc2NS(=O)(=O)c2ccc(O)c([N+](=O)[O-])c2)cc1`, the IC50 was 9.78 µM.

With `CCn1cc2c(n1)c(=O)n(Cc1ccccc1)c(=O)n2CC(=O)Nc1ccc(OC)cc1`, the IC50 is 35.9 µM.

For the compound `O=C(NC1(O)C(=O)c2ccccc2C1=O)c1ccc(-c2csnn2)cc1`, the IC50 is 9.45 µM.

Regarding `O=C(Cn1c(=O)c2sccc2n(CC(=O)OCc2ccccc2)c1=O)NCc1ccccc1Cl`, the IC50 was 16.8 µM.

Regarding `COc1cccc(NC(=O)c2cnc(N3CCCC3)nc2C)c1`, the IC50 was > 40 µM (inactive).

For `O=C(NCc1ccc(Br)cc1)c1cc(-c2cccnc2)n[nH]1`, the IC50 was > 40 µM (inactive).

Turning to `O=C(Cn1c(=O)n(Cc2ccc3c(c2)OCO3)c(=O)c2cccnc21)Nc1ccc(F)cc1`, the IC50 is > 40 µM (inactive).

As to `COc1ccc(OC)c(NC(=O)c2sc(-c3ccccc3)nc2C)c1`, the 50% inhibitory concentration (IC50) was 37 µM.

For `COc1ccc(C2NC(=O)NC(C)=C2C(=O)OCC2CCCCC2)cc1OC` (stereo not drawn), the IC50 was > 40 µM (inactive).

For `COC(=O)c1ccc2c(=O)n(CCCCCC(=O)NCc3cccc(Cl)c3)c(=O)[nH]c2c1`, the IC50 was 16 µM.

With `COc1ccc2cc(C(=O)N3CCC(C(C)C(=O)NCc4cccc(F)c4)CC3)[nH]c2c1` (stereo not drawn), the IC50 is 38 µM.

Turning to `Cc1nc(C(=O)NC2(O)C(=O)c3ccccc3C2=O)cs1`, the IC50 is 6.82 µM.

On to `O=C(Nc1ccc(C(F)(F)F)cc1)C1CC(=O)N(c2ccc3c(c2)OCCO3)C1` (stereo not drawn), for which the IC50 is > 40 µM (inactive).

Regarding `Oc1cccc2c(-c3ccc(O)c4c(O)cccc34)ccc(O)c12`, the IC50 was > 40 µM (inactive).

As to `O=C(CNC(=O)OCc1ccccc1)Nc1ccc(Br)cc1C(=O)c1ccccc1Cl`, the IC50 was > 40 µM (inactive).

Turning to `CCOc1ccc(-c2nnc(-c3cnc4onc(C5CCCC5)c4c3)o2)cc1`, the IC50 is 25 µM.

Regarding `CC(=O)Nc1ccc(S(=O)(=O)NCc2ccc(C(=O)NCCc3ccc(Cl)cc3)cc2)cc1`, the IC50 was > 40 µM (inactive).

For the compound `O=C(CSc1nnc2ccc3ccccc3n12)c1ccc(Cl)cc1`, the IC50 is > 40 µM (inactive).

As for `COc1ccc(-c2onc(C)c2C)cc1S(=O)(=O)NCc1ccc(F)cc1`, the IC50 is > 40 µM (inactive).
